Test results published in patent US20050271588A1, “Liposome targeting of matrix metalloproteinase inhibitors” (priority 2001, published 2005).
Positions of bridges follow the written chain, without caps; N, C: chain ends. Residues, ends and D or L forms follow the SMILES beside them.

Assays:
[1] = Assay for lipid mixing (liposome fusion, NBD-PE/DPPRho); assay type: physicochemical; details: within 15 min
Method: The extent of exposure of Trp to the aqueous phase was studied using I— as a collisional quencher (Lakowicz, 1999). The extent of quenching was calculated by using the equation: F0/F=1+k[Q]=1+kqτ0[Q] where F0 and F are Trp fluorescence intensities at 345 nm in the absence and presence of the quencher, Q, τ0 is Trp fluorescence lifetime in the absence of the quencher, k is the Stern-Volmer constant (obtained from the slope of the linear fit of the data). Fluorescence of Trp in CTT (5 μM) and its quenching were measured in the absence and presence of POPC/POPE (80:20, mol/mol) LUVs (final lipid concentration of 0.5 mM). The results were corrected for background caused by PBS and liposomes. Assay for lipid mixing. The ability of the CTT, CLP, STT, and CWL peptides to induce liposome fusion was assessed by measuring lipid mixing, as described earlier (Struck et al., 1981). In brief, NBD-PE (X=0.01) and DPPRho (X=0.01) were incorporated into liposomes (POPC/POPE, 78/20, mol/mol). Due to the spectral overlap of NBD-PE (donor) emission and DPPRho (acceptor) absorption resonance energy transfer between these dyes is highly efficient. As liposomes containing NBD-PE and DPPRho are mixed with non-labeled liposomes, fusion is observed as an increase in the emission intensity of NBD-PE due to the dilution of probes. Excitation and emission wavelengths for NBD-PE at 430 nm and 530 nm were used. All fluorescence measurements were done at 37° C.

MMP-2 = biological target: T1, MMP-2 (Homo sapiens, UniProt P08253); test: Casein zymography, inhibition of MMP-2; assay type: biochemical; details: 85 μM peptide
T1 construct: purchased Boehringer Mannheim GmbH (Germany)
T1 sequence (P08253 110-660): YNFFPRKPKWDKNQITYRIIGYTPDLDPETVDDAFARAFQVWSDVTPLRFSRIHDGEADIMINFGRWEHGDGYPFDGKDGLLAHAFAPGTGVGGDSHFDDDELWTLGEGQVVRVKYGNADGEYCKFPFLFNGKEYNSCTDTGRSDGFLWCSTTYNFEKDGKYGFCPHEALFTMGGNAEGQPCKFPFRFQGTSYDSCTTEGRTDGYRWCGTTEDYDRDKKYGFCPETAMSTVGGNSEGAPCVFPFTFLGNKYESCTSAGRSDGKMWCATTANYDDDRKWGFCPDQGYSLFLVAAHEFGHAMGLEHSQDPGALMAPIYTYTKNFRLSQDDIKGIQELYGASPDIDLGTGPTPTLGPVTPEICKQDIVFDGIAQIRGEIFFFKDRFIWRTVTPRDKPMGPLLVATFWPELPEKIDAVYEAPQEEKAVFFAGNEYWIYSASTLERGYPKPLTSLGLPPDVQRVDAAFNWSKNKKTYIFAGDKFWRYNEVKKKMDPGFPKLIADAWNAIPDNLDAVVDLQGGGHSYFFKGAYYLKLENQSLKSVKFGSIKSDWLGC
Method: Assay for gelatinases. Inhibition of MMP-9 and MMP-2 by the different synthetic peptides was measured using casein zymography (Halinen et al., 1996). MMP-9 was purified as described (Sorsa et al., 1997). Subsequently, MMP-2 (2.5 μg) or MMP-9 (2.5 μg) was run on a 10% SDS-PAGE containing two mg/ml casein. The gel was first washed in Triton X-100 containing buffer to remove SDS, and it was cut into five slices which were immersed into peptide (CTT, CLP, CWL or STT) containing solutions (85 μM). After incubation for 48 hrs at 37° C., the gels were stained with Coomassie blue, scanned, and the digested areas quantitated using image analysis (Global Lab Image 3.2, Data Translation Inc. and Acuity Imaging Inc., Marlboro, Mass., USA).

U937 cells = test: Cell killing by Adriamycin-containing liposomes, EthD-1 viability assay; assay type: cell-based; details: U937, 24 h, peptide 85 μM, Adriamycin 0.4 μM
Method: Viability assays. Peptide-liposome complexes with the encapsulated adriamycin were made as described above, yielding final concentrations of peptide, lipid, and adriamycin of 85 μM, 0.2 mM, and 0.4 μM, respectively, and were subsequently added to a ten μl (10^5 cells) sample of U937 cells. For the detection of dead cells EthD-1 was used. This fluorophore is membrane-impermeable and emits fluorescence only when bound to DNA (Papadopoulos et al., 1994). Accordingly, EthD-1 readily enters dead cells and binds to their DNA, its fluorescence intensity correlating to the amount of dead cells. EthD-1 emission was measured using microplate reader with excitation at 495 nm and emission at 635 nm. Student's t-test was used to assess statistical significance.

U937 leukemia cells = test: Association of DPPRho-labelled liposomes with cells; assay type: cell-based; details: U937, 5 min
Method: Assays for liposome uptake by cells. In order to study the effects of the different peptides on the cellular uptake of liposomes, rhodamine-labelled phospholipid analog (DPPRho) was incorporated into liposomes as a tracer, to yield a composition POPC/POPE/DPPRho (80:19:1, mol/mol). The indicated peptides were mixed with LUVs and subsequently added to cells cultured in microtiter well plates. After an incubation for 5 min at 38° C. liposomes not bound to the cells were removed by rinsing the cells three times with cold PBS. The relative amount of DPPRho associated with the cells was determined using Tecan Spectrafluor Plus microplate reader (Tecan, Hombrechtigon, Switzerland) with excitation at 535 nm and emission at 595 nm.

[2] = Trp fluorescence I350/I330 ratio; assay type: physicochemical
Method: Fluorescence spectroscopy. The environments of the tryptophan residues of CTT, STT, CLP, and CWL in liposomes were studied by fluorescence spectroscopy. The center of Trp fluorescence peak is at ˜350 nm when in water, whereas in a hydrophobic environment the emission is centered near 330 nm. Accordingly, changes in the microenvironment of Trp can be monitored by measuring I350/I330, the ratio of the emission at 350 nm to that at 330 nm (Lakowicz, 1999). Tryptophan fluorescence was recorded with a Perkin Elmer LS 50 B spectrofluorometer equipped with a magnetically stirred and thermostated cuvette compartment. […] Excitation and emission bandpasses were 10 nm and 10 nm, respectively. Excitation wavelength was 295 nm, and emission spectra were recorded in the range 300 to 400 nm. […]

With CC(C)C[C@@H]1NC(=O)[C@H]([C@@H](C)O)NC(=O)[C@H](Cc2ccccc2)NC(=O)CNC(=O)[C@H](Cc2c[nH]c3ccccc23)NC(=O)[C@H](Cc2c[nH]cn2)NC(=O)[C@H]([C@@H](C)O)NC(=O)[C@H]([C@@H](C)O)NC(=O)[C@@H](N)CSSC[C@@H](C(=O)O)NC1=O [CTT] (H-CTTHWGFTLC-OH; disulfide 1-10; N-terminus and C-terminus assumed) the “Lipid mixing / vesicle fusion (NBD-PE emission)” value [1] was “lack of lipid mixing”, the “Inhibition of MMP-2 activity” value (MMP-2) was “approx. 70%” and the “Increase in killing of cells vs Adriamycin liposomes without peptide” value (U937 cells) was 4.1 fold. For the same molecule, the “Increase of DPPRho marker bound to cells with peptide vs without” value (U937 leukemia cells) was “approx. 3.7 fold”, the “I350/I330 of Trp residue” value ([2]; in PBS) was 1.4 and the “I350/I330 of Trp residue” value ([2]; presence of LUVs (0.5 mM total phospholipid)) was 1.00.
